In ChEMBL document CHEMBL1145306, “Synthesis of 2-C-hydroxymethylribofuranosylpurines as potent anti-hepatitis C virus (HCV) agents” (2006):

Key:
Hepatitis C virus [1] = assay: Antiviral activity against HCV in Huh7 cell line at 1 uM assessed as reduction in luciferase activity; type: functional, Hepacivirus hominis; details: Huh-7
Hepatitis C virus [2] = assay: Antiviral activity against HCV in Huh7 cell line at 10 uM assessed as reduction in luciferase activity; type: functional, Hepacivirus hominis; details: Huh-7

In the case of `Nc1ncnc2c1ncn2[C@@H]1O[C@H](CO)[C@@H](O)[C@]1(O)CO`, the inhibition at 1 µM (Hepatitis C virus [1]) is reported as 2% and the inhibition at 10 µM (Hepatitis C virus [2]) is reported as 50%.
